In patent US20120328631A1, “EP1 INHIBITION” (UNIVERSITY OF ROCHESTER, priority 2010, published 2012):

What was measured:
Format in all cases: cell-based, mouse
EP1 mRNA = test: siRNA knock down of EP1 expression in primary bone marrow stromal cells (real-time PCR); conditions: primary bone marrow stromal cells transfected with EP1 siRNA
Description: (§1) Relative RNA levels of EP1 and fibronectin were determined by real-time PCR (FIGS. 11A and 11B). Immunohistochemistry was performed using mouse fibronectin primary antibody on the femur fracture tissue samples collected from 10-week-old EP1^−/− and wild-type mice at 3 and 7 days post-fracture (FIG. 11C). Statistical comparisons were performed using 2-way ANOVA followed by Student's t-test. a=P<0.05 vs. wild-type, b=P<0.05 vs. control, c=P<0.05 vs. PGE2.
(§2) Mice were sacrificed post fracture at 3, 7, 10, 14, 21 and 28 days (N=4). Fracture callus tissue samples were carefully dissected from soft tissue and homogenized using the TissueLyzer (Qiagen; Valencia, Calif.). Total RNA was then extracted from homogenized samples by the RNeasy Fibrous Tissue Midi Kit (Qiagen) according to the manufacturer's instructions. One microgram aliquots of RNA were reverse transcribed into cDNA using the iScript cDNA Synthesis Kit (Bio-Rad; Hercules, Calif.). Real-time […] was performed using the Rotor Gene 6000 real-time DNA amplification system (Qiagen) according to the manufacturer's instruction. […]
To further confirm regulation of fibronectin by the PGE2-EP1 signaling pathway, siRNA as described above was used to knock down EP1 expression in primary bone marrow stromal cells. […] Fibronectin expression levels were examined by quantitative real-time PCR.

fibronectin = test: Fibronectin expression in bone marrow cells (Western blotting, real-time PCR)
Description: Bone marrow cells were collected from 10-week-old EP1^−/− and wild-type mice and treated with 3 μM PGE2 for 24 hours before harvest. Total protein was extracted from the cultured cells at day 17 and RNA was extracted at days 10, 12, 14, 17 and 21 after culture. Western blotting (FIG. 10A) and real-time PCR (FIG. 10B) were performed to examine the expression levels of fibronectin. […] Statistical comparisons were performed using 2-way ANOVA followed by Dunnett's test. a=P<0.05 vs. wild-type, b=P<0.05 vs. control, c=P<0.05 vs. PGE2.
as §1, §2
Bone marrow cells were washed with cold phosphate-buffered saline (PBS) three times and lysed on ice in Golden Lysis Buffer (GLB) for 30 minutes as previously described (Li et al., Exp. Cell Res. 300:159-69 (2004)). […] The immune complexes were detected using NBT/BCIP substrate (Pierce Biotechnology).

EP2 and EP4 receptors = test: cAMP-Glo Assay in bone marrow cell cultures; parameters: dose or concentration left out as unconfirmed; conditions: bone marrow cell cultures from wild type and EP1−/− mice
Description: Bone marrow cells were isolated from 10-week-old EP1^−/− mice and wild-type mice. After culturing for 7 days, cells were treated with PGE2 ([…]) or vehicle for 24 hours. […] The representative photomicrographs are shown at 200× original magnification. Statistical comparisons were performed using Student's T-test. “a” indicates p<0.05 compared to wild-type, “b” indicates p<0.05 compared to EP1^−/−. β-actin served as the loading control.
(§3) Bone marrow cells were isolated from 10-week-old EP1^−/− and C57BL/6J mice. Cells were cultured in 2 ml α-MEM containing 10% FBS at 5×10^6 cells/well in 6-well plates. After being cultured for 7 days, the medium was replaced with media containing beta-glycerophosphate and ascorbic acid, and the media was changed every two days thereafter. Cells were harvested on day 10, 12, 14, 17 and 21 after plating for alkaline phosphatase and alizarin red staining, and mRNA analysis by quantitative real-time PCR. Cell proliferation was examined using the Cell Proliferation ELISA BrdU (colorimetric) immunoassay kit (Roche; Indianapolis, Ind.) according to the manufacturer's instructions. Cell viability was examined using the CellTiter-Blue Cell Viability Assay (Promega; Madison, Wis.) according to the manufacturer's instructions. Intracellular cAMP activity in bone marrow cells was examined using the cAMP-Glo Assay (Promega) according to the manufacturer's instructions.

[1] = system: primary bone marrow stromal cells; test: Bone nodule formation / mineralization (Alizarin red staining) in bone marrow cell cultures
Description: (§4) An EP1 expression vector was transfected into the EP1^−/− bone marrow cells by electroporation. […] Bone marrow progenitor cells at day 12 after culture were treated with SC19220 (10 μm) for 30 minutes followed by treatment with PGE2 (3 μm). After 24 hours, cells were stained with Alizarin red (FIGS. 12C and 12D). RNA extracted from the cultures was examined for osteocalcin expression (FIG. 12E). Statistical comparisons were performed using Student's t-test. a=P<0.05 vs. control, b=P<0.05 vs. PGE2.
Increasing concentrations of fibronectin were added to bone marrow cell cultures at day 12. 24 hours later, cells were stained with Alizarin Red (FIGS. 13A and 138) or harvested for real-time PCR (FIG. 13B). Statistical comparisons were performed using Student's t-test, a=P<0.05 vs. control.
as §3

osteocalcin = test: Osteocalcin expression by real-time PCR in bone marrow cell cultures; conditions: cultures treated with SC19220 and PGE2, RNA
Description: as §4
as §3, with “Intracellular cAMP activity in bone marrow cells was examined using the cAMP-Glo Assay (Promega) according to the manufacturer's instructions.” left out

EP1 siRNA: siRNA used to knock down EP1 expression; example sequences SEQ ID NO:21 and SEQ ID NO:22 (chain 1 AGCUUGUCGGUAUCAUGGUTT; chain 2 ACUUCUAAGCACACCAGATT; chemistry not given here)
decrease of EP1 mRNA (EP1 mRNA): about 40% | PGE2-stimulated fibronectin expression (fibronectin; cells transfected with EP1 siRNA vs control siRNA, quantitative real-time PCR): inhibited

CCCCC[C@H](O)/C=C/[C@H]1[C@H](O)CC(=O)[C@@H]1C/C=C\CCCC(=O)O [PGE2]
fibronectin expression (fibronectin; cells with control siRNA, quantitative real-time PCR): stimulate fibronectin expression | expression of fibronectin (protein and mRNA) (fibronectin; wild-type bone marrow cells compared with EP1−/− cells, 3 μM PGE2 for 24 hours): dramatically increased | levels of cAMP (EP2 and EP4 receptors): similarly enhanced

fibronectin
bone nodule formation ([1]; wild-type bone marrow cells, 5 μg/ml fibronectin added at day 12, 24 hours, alizarin red): did not alter bone nodule formation | mineralization ([1]; wild-type bone marrow cells, 12.5 μg/ml fibronectin added at day 12, 24 hours, alizarin red): significantly reduced mineralization | mineralization ([1]; wild-type bone marrow cells, 25 μg/ml fibronectin added at day 12, 24 hours, alizarin red): significantly reduced mineralization

CC(=O)NNC(=O)N1Cc2ccccc2Oc2ccc(Cl)cc21 [SC19220, 8-chloro-dibenz[b,f][1,4]oxazepine-10(11H)-carboxy-(2-acetyl)hydrazide]
bone nodule formation ([1]; primary bone marrow cell cultures at day 12, SC19220 (10 μm) for 30 minutes, then PGE2 (3 μm), 24 hours, Alizarin red): accelerated bone nodule formation | time in culture at which bone nodule formation was induced ([1]; wild-type cells, 12 day cultures treated with antagonist and PGE2 for 24 hours, untreated cultures typically form nodules following 14 days): ≤ 13 days | expression level of osteocalcin (osteocalcin): increased
